The record followed here is the SangsterLogP compilation.

The nature of this series: method code SF-AS, from DOI: 10.1002/zfch.19810210618.
Take `NNC(=O)Nc1ccccc1[N+](=O)[O-]`: the logP was -0.47.

For the compound `NNC(=O)Nc1ccc(Cl)cc1`, the lipophilicity (logP) is 0.87.

Regarding `NNC(=O)Nc1cccc(O)c1`, the log partition coefficient (logP) is -0.5.

On to `NNC(=O)Nc1ccccc1C(=O)O`, for which the logP is -0.49.

On to `Cc1cccc(NC(=O)NN)c1`, for which the log partition coefficient (logP) came to 0.68.

Consider `NNC(=O)Nc1ccc(C(=O)O)cc1`, for which the logP is -0.21.

In turn, `NNC(=O)Nc1cccc(Br)c1` displayed a logP of 0.96.

With `NNC(=O)Nc1cccc(C(=O)O)c1`, the logP was -0.16.

Turning to `Cc1ccc(NC(=O)NN)cc1`, the log partition coefficient (logP) was 0.69.

In turn, `NNC(=O)Nc1ccccc1Br` yielded a logP of 0.66.

`NNC(=O)Nc1cccc2ccccc12`: the logP is 0.9.

Consider `NNC(=O)Nc1ccc([N+](=O)[O-])cc1`, for which the logP is -0.18.

In turn, `NNC(=O)Nc1ccc(I)cc1` yielded a logP of 1.24.

In turn, `NNC(=O)Nc1cccc(Cl)c1` displayed a logP of 0.83.

Compound `CCOc1ccc(NC(=O)NN)cc1` displayed a logP of 0.53.

Compound `COc1cccc(NC(=O)NN)c1` came in with a logP of 0.17.

`NNC(=O)Nc1cc(Cl)ccc1Cl` came in with a log partition coefficient (logP) of 1.07.

Consider `COc1ccccc1NC(=O)NN`, for which the logP was -0.15.

Turning to `NNC(=O)Nc1cccc([N+](=O)[O-])c1`, the log partition coefficient (logP) was -0.13.

`COc1ccc(NC(=O)NN)cc1` came in with a logP of 0.17.

With `NNC(=O)Nc1ccccc1Cl`, the logP was found to be 0.45.

Turning to `NNC(=O)Nc1ccc(O)cc1`, the logP is -0.55.

Consider `NNC(=O)Nc1ccccc1`, for which the logP worked out at 0.16.

`NNC(=O)Nc1ccc(Br)cc1` showed a lipophilicity (logP) of 1.

`NNC(=O)Nc1ccccc1O` yielded a log partition coefficient (logP) of 0.33.

Consider `Cc1ccccc1NC(=O)NN`, for which the logP turned out to be 0.36.

The logP is the decadic logarithm of the partition coefficient of the neutral form, usually between octanol and water. The low end stands for lower lipophilicity, the high end for higher lipophilicity.
